Results reported in patent US5006531A, “5,6-dihydro(1H-indolo(3,2-C)quinoline-6,4'-piperidines) and related compounds which are useful for treating pain, psychosis or convulsions” (Hoechst-Roussel Pharmaceuticals Inc., priority 1989, dated 1991).
Counter-ions that a name gives are not always drawn.

How the values were obtained:
Format in all cases: in vivo
mice = experiment: 2-phenyl-1,4-benzoquinone-induced writhing (PQW) test in mice (analgesic activity); conditions: for PQW: s.c.
Text: Compounds I of the present invention are useful as analgesic agents due to their ability to alleviate pain in mammals. […] Exptl. Biol. Med., 95, 729 (1957)].

CK-1 male mice = experiment: climbing mice assay (apomorphine-induced climbing, antipsychotic activity); conditions: Mus musculus, apomorphine 1.5 mg/kg s.c.
Experimental: Antipsychotic activity is determined in the climbing mice assay by methods similar to those described by P. Protais, et al., Psychopharmacol., 50, 1 (1976) and B. Costall, Eur. J. Pharmacol., 50, 39, (1978).
The subject CK-1 male mice (23-27 grams) are group-housed under standard laboratory conditions. The mice are individually placed in wire mesh stick cages (4"×4" by 10") and are allowed one hour for adaptation and exploration of the new environment. Then apomorphine is injected subcutaneously at 1.5 mg/kg, a dose causing climbing in all subjects for 30 minutes. Compounds to be tested for antipsychotic activity are injected intraperitoneally 30 minutes prior to the apomorphine challenge at a screening dose of 10 mg/kg.
For evaluation of climbing, 3 readings are taken at 10, 20 and 30 minutes after apomorphine administration according to the following scale:
4 paws on bottom (no climbing)
2 paws on the wall (rearing)
4 paws on the wall (full climb)
Mice consistently climbing before the injection of apomorphine are discarded.
With full-developed apomorphine climbing, the animals are hanging onto the cage walls, rather motionless, over long periods of time. By constrast, climbs due to mere motor stimulation usually last only a few seconds.
The climbing scores are individually totaled (maximum score: 6 per mouse over 3 readings) and the total score of the control group (vehicle intraperitoneally; apomorphine subcutaneously) is set to 100%. ED50 values with 95% confidence limits, calculated by a linear regression analysis, of some of the compounds of this invention are presented in Table 2.
Results of the climbing mice assay for some of the compounds of this invention along with a result for a reference compounds are presented in Table 2.

male mice = experiment: supramaximal electroshock (SES) assay in the mouse (anticonvulsant activity)
Experimental: Compounds I of the present invention are also useful as anticonvulsant agents due to their anticonvulsant activity in mammals. Anticonvulsant activity is measured in the mouse using the supramaximal electroshock (SES) assay described in Arch. Int. Pharmacodyn. 92: 97-107, 1952. In this procedure groups of male mice, 18-30 grams, are used. Drugs are prepared using distilled water and, if insoluble, a surfactant is added. Control animals receive vehicle. Drugs are routinely administered intraperitoneally (i.p.). The dosage volume is 10 ml/kg. A primary screen is given a 30 minute pretreat. The animal's eyes are placed across the output terminals of an A.C. shocker that delivers 206 volts rms for 300 msec. Electrode paste coats the animal's eyes at the point of contact with the terminals. […] Protection is expressed as normalized percent inhibition relative to vehicle control.
A time response is carried out using six animals/group. Animals are tested at 30, 60 and 120 minutes postdrug. Additional time periods are tested if indicated by previous tests. When the peak activity time has been determined, a dose response is initiated using 10 animals/group at that time period. The ED50 and 95% confidence interval are calculated by computer probit analysis.
Test results of supramaximal electroshock for a compound of this invention along with a result for a reference compound are presented in Table 3.

[1] = ip, 30 minutes prior to apomorphine challenge

## CN1CCC2(CC1)c1c([nH]c3ccccc13)-c1ccccc1N2C [1',5-Dimethyl-5,6-dihydrospiro[1H-indolo[3,2-c]quinoline-6,4'-piperidine]fumarate, hemiethanolate]
mice; Mus musculus, sc
  ED50: 10.3 mg/kg
CK-1 male mice; [1]
  ED50: 19.8 mg/kg

## CC(=O)N1CCC2(CC1)NC1=CC=CCC1=C1N=c3ccccc3=C12 [1'-Acetyl-5,6-dihydrospiro[1H-indolo[3,2-c]quinoline-6,4'-piperidine]]
mice; at 20 mg/kg
  PQW: -66%

## CCN1CCC2(CC1)NC1=CC=CCC1=C1N=c3ccccc3=C12 [1'-Ethyl-5,6-dihydrospiro[1H-indolo[3,2-c]quinoline-6,4'-piperidine]]
Male mice; at 60 mg/kg, i.p.
  supramaximal electroshock, normalized percent inhibition relative to vehicle control: -80%

## c1ccc(CCN2CCC3(CC2)Nc2ccccc2-c2[nH]c4ccccc4c23)cc1 [1'-Phenethyl-5,6-dihydrospiro[1H-indolo[3,2-c]quinoline-6,4'-piperidine]fumarate]
mice; at 5 mg/kg
  PQW: -55%

## CN1CCC2(CC1)c1c([nH]c3ccccc13)-c1ccc(Cl)cc1N2C [3-Chloro-5,1'-dimethyl-5,6-dihydrospiro[1H-indolo-[3,2-c]quinoline-6,4'-piperidine]dihydrochloride]
CK-1 male mice; [1]
  ED50: 13.2 mg/kg

## CNC1=Nc2ccc(Cl)cc2C(c2ccccc2)=[N+]([O-])C1 [Chlorodiazepoxide, reference compound]
Male mice; ip, reference compound
  ED50: 8 mg/kg

## CN1CCN(C2=Nc3cc(Cl)ccc3Nc3ccccc32)CC1 [Clozapine, reference compound]
CK-1 male mice; sc, reference compounds
  ED50: 8.1 mg/kg

## CC(C)=CCN1CCC2(C)c3cc(O)ccc3CC1C2C (stereo not drawn) [Pentazocine, reference compound]
mice; at 1.3 mg/kg, reference compound
  PQW: -50%
